Earlier results, collected in patent US20060006323A1, “Method and an apparatus for evaluating toxicity of chemical agents” (priority 2004, published 2006).

molecular target: T1, AhR (Homo sapiens, UniProt P35869); conditions: published by Matsui et al. 2002, HPLC bioassay; cited from earlier work
T1 sequence (P35869 11-848): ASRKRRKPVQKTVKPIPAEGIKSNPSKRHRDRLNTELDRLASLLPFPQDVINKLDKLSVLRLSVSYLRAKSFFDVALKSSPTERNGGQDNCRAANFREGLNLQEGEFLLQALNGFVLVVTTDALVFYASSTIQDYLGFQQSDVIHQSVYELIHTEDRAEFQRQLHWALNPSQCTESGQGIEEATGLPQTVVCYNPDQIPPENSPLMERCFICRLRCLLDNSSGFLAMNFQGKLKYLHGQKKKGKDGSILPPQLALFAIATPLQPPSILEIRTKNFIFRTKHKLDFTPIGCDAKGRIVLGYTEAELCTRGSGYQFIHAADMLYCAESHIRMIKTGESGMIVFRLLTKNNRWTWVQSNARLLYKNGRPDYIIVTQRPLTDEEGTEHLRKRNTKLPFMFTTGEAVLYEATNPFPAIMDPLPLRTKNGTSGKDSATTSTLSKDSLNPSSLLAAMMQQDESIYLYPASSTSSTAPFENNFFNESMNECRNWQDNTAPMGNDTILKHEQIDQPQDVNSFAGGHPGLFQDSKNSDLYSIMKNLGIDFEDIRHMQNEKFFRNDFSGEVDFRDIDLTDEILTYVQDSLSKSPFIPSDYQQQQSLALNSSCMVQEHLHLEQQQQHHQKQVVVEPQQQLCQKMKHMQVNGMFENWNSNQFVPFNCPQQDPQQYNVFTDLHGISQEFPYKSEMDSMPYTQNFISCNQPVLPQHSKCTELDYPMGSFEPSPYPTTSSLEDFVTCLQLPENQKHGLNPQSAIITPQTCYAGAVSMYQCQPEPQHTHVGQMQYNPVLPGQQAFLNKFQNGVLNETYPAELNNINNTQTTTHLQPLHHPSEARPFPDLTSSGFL

| Structure (SMILES) | affinity with AhR |
| --- | --- |
| O=C1/C(=C2\Nc3ccccc3C2=O)Nc2ccccc21 [indigo] | strong affinity |

test system: not given; conditions: toxicity intensity relative to 2,3,7,8-TCDD set to be 1; cited from earlier work

| Structure (SMILES) | WHO-TEF |
| --- | --- |
| Clc1c(Cl)c(Cl)c2c(c1Cl)Oc1c(Cl)c(Cl)c(Cl)c(Cl)c1O2 [OCDD] | 0.0001 |
| Clc1cc2c(cc1Cl)Oc1cc(Cl)c(Cl)cc1O2 [2,3,7,8-TCDD] | 1 |
| Clc1cc2c(cc1Cl)Oc1c(cc(Cl)c(Cl)c1Cl)O2 [1,2,3,7,8-PeCDD] | 1 |
| Clc1cc2c(c(Cl)c1Cl)Oc1cc(Cl)c(Cl)c(Cl)c1O2 [1,2,3,6,7,8-HxCDD] | 0.1 |
| Clc1cc2c(c(Cl)c1Cl)Oc1c(cc(Cl)c(Cl)c1Cl)O2 [1,2,3,7,8,9-HxCDD] | 0.1 |
| Clc1cc2c(cc1Cl)Oc1c(Cl)c(Cl)c(Cl)c(Cl)c1O2 [1,2,3,4,7,8-HxCDD] | 0.1 |

test system: not given; conditions: reported toxicity; cited from earlier work

| Structure (SMILES) | toxicity |
| --- | --- |
| Clc1c(Cl)c(Cl)c2c(c1Cl)Oc1ccccc1O2 [1,2,3,4-TCDD] | without any reported toxicity |
| O=C1/C(=C2\Nc3ccccc3C2=O)Nc2ccccc21 [indigo] | comparatively low |
